Source: paper PMC9124820, “In vitro evaluation of fenfluramine and norfenfluramine as victims of drug interactions” (Pharmacology Research & Perspectives, 2022)

Assays:
rCYP2C19 = target: T1, rCYP2C19 (Homo sapiens, UniProt P33261); assay: Reaction phenotyping with rCYP2C19; assay type: in vitro ADME; settings: rCYP2C19, 60 min
T1 construct: purchased Cypex, Ltd; host or cells: Escherichia coli
Method: (§1) For FFA and nFFA reaction phenotyping experiments, LC‐MS/MS experiments were performed using an API 4000 QTRAP or QTRAP 5500 mass spectrometer (SCIEX) with positive electrospray ionization. Chromatography was performed using an Atlantis dC18 analytical column (100 × 2.1 mm, 5 µm; Waters Corporation). Mobile phases were 0.2% v/v formic acid in water and 0.2% v/v formic acid in methanol. FFA and nFFA were eluted at a flow rate of 0.5 mL/min with a linear gradient of 40%−95% methanol from 0.20−2.1 min. The mass transitions monitored were 232.0>109.0 for FFA, 204.0>159.0 for nFFA, 348.0>330.0 for 1’‐hydroxymidazolam‐d4 internal standard (FFA reaction phenotyping), and 262.0>244.0 for hydroxybupropion‐d6 internal standard (nFFA reaction phenotyping). Analyst Instrument Control and Data Processing software (v. 1.6.1) was used for collecting and integrating data (SCIEX). Calibration curves ranging from 1.25 µM−0.01 µM were used to quantify nFFA. Relative quantitation was used to approximate the amount of FFA test material used.
(§2) Methods used to evaluate the role of CYP450s in the metabolism of FFA have been described.[22], [23], [24] […] Supernatant fractions were analyzed by LC‐MS/MS.

rCYP2B6 = target: T2, rCYP2B6 (Homo sapiens, UniProt P20813); assay: Reaction phenotyping with rCYP2B6; assay type: in vitro ADME
T2 construct: purchased Cypex, Ltd; host or cells: Escherichia coli
T2 sequence (P20813 1-491): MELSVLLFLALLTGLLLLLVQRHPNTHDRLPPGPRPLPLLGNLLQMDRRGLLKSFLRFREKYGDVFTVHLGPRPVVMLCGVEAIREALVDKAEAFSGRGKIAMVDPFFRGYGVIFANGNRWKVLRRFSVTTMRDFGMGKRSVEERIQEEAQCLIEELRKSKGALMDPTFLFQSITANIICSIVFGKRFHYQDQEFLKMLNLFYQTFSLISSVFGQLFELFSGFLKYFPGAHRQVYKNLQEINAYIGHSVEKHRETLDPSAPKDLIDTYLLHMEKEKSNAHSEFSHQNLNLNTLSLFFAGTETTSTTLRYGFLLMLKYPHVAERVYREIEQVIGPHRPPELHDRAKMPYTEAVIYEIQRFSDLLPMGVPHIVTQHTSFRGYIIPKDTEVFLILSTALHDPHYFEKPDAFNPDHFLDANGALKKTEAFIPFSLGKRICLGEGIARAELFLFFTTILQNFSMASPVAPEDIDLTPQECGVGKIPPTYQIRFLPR
Method: as §1, §2

T1 sequence (P33261 whole entry): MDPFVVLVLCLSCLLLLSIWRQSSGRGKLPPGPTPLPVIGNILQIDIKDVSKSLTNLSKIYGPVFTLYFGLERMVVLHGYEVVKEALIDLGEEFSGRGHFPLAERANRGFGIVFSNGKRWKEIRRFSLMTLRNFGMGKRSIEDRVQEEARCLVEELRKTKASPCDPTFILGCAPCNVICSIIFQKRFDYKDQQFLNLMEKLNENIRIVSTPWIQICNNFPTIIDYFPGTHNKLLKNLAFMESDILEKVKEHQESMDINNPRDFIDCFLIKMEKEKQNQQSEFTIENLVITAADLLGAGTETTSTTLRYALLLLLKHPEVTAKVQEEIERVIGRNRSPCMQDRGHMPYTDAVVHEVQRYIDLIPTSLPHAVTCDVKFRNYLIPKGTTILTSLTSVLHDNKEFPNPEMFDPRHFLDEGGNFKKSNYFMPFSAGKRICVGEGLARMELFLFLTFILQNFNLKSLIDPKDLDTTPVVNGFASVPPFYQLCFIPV

CCNC(C)Cc1cccc(C(F)(F)F)c1 (racemic) [FFA, (RS)‐ethyl (α‐methyl‐3‐trifluoromethylphenethyl)amine]
Disappearance of FFA (rCYP2C19; 1 μM FFA): 49% | FFA loss (rCYP2C19; 10 μM FFA): 50% | FFA disappearance (rCYP2B6; 1 µM FFA, rCYP2B6): 10% | FFA loss (rCYP2B6; 10 μM FFA, rCYP2B6, 60 min): 21%
